The experiment addresses T1, Proteinase-activated receptor 1 (Homo sapiens, UniProt P25116).
T1 sequence (P25116 whole entry): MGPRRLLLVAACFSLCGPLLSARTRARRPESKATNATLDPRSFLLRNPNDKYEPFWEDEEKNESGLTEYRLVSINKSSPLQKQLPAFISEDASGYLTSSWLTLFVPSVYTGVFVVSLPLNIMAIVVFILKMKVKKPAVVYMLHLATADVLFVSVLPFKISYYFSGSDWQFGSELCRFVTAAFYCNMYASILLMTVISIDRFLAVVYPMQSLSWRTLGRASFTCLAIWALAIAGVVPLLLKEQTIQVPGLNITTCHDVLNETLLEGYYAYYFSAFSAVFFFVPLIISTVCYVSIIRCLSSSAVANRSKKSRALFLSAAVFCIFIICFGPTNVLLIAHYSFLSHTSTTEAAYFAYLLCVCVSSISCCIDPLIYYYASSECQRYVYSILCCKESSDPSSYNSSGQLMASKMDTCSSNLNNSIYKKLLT
Put plainly: Human Thrombin receptor 1 (PAR-1) antagonistic ability to inhibit SFLLRN-NH2 (2.7 uM)-induced platelet aggregation; Not active at 110 uM concentration. It is filed as functional.

Structures are written as SMILES. Where a SMILES comes first, the peptide text is derived from it. [ ]: non-standard residue; d: D form. The star is where a group is joined. Phe(4-guanidino) = N=C(N)Nc1ccc(C[C@H](N)C(=O)O)cc1; Bpa = N[C@@H](Cc1ccc(C(=O)c2ccccc2)cc1)C(=O)O; Phe(4-F) = N[C@@H](Cc1ccc(F)cc1)C(=O)O; NBD = O=[N+]([O-])c1ccc(*)c2nonc12; Orn = NCCC[C@H](N)C(=O)O; X2 = O=C(/C=C/c1ccccc1)*

With `CC(C)C[C@H](NC(=O)[C@H](Cc1ccc(NC(=N)N)cc1)NC(=O)[C@H](Cc1ccc(F)cc1)NC(=O)/C=C/c1ccccc1)C(=O)N[C@@H](Cc1ccc(C(=O)c2ccccc2)cc1)C(=O)N[C@@H](CCCNc1ccc([N+](=O)[O-])c2nonc12)C(=O)O` (X2-[Phe(4-F)][Phe(4-guanidino)]L[Bpa][Orn](NBD)-OH), the IC50 result is listed as “Not Active”.

For the origin of these results see ChEMBL document CHEMBL1132030, “Photoactivatable peptides based on BMS-197525: a potent antagonist of the human thrombin receptor (PAR-1)” (Bioorg Med Chem Lett, 1999).
